Laboratory results: ChEMBL document CHEMBL1141507, “Entry into a new class of protein kinase inhibitors by pseudo ring design” (Bioorg Med Chem Lett, 2008)

What was measured:
[1] = Inhibition of p38 kinase
[2] = molecular target: Insulin-like growth factor 1 receptor (Homo sapiens, UniProt P08069); assay: Inhibition of IGF1R
[3] = molecular target: Vascular endothelial growth factor receptor 2 (Homo sapiens, UniProt P35968); assay: Inhibition of KDR
[4] = molecular target: Tyrosine-protein kinase ABL1 (Homo sapiens, UniProt P00519)
Chain of Tyrosine-protein kinase ABL1 (P00519 whole entry): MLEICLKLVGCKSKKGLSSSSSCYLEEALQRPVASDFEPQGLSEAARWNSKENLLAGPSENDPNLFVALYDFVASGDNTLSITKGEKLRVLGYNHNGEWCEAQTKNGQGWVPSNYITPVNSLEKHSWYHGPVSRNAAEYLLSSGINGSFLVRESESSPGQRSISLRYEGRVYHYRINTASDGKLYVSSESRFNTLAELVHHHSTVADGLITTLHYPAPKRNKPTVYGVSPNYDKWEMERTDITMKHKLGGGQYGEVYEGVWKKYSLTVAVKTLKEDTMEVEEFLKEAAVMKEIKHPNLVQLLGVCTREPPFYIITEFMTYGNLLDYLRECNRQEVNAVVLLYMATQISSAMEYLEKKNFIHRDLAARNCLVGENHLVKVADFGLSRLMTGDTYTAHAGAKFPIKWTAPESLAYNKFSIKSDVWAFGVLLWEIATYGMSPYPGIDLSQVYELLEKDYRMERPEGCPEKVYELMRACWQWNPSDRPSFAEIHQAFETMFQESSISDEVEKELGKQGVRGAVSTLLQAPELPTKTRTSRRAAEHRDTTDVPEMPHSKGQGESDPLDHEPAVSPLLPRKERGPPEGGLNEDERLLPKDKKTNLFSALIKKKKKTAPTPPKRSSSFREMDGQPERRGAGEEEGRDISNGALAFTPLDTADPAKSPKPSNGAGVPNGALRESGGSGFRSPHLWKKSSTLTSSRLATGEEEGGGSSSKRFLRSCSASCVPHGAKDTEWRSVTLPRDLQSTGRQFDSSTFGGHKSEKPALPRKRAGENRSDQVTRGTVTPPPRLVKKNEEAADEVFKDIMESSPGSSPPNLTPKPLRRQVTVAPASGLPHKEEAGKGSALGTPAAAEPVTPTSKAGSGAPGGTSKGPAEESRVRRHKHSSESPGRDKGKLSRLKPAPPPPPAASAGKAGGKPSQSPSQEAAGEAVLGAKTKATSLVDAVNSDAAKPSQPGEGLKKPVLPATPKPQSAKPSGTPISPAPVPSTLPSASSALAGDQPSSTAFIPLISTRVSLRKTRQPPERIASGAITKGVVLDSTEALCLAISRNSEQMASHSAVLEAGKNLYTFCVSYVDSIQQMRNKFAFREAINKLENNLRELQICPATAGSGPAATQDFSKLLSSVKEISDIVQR

[5] = molecular target: Mast/stem cell growth factor receptor Kit (Homo sapiens, UniProt P10721); assay: Inhibition of cKit
Chain of Mast/stem cell growth factor receptor Kit (P10721 whole entry): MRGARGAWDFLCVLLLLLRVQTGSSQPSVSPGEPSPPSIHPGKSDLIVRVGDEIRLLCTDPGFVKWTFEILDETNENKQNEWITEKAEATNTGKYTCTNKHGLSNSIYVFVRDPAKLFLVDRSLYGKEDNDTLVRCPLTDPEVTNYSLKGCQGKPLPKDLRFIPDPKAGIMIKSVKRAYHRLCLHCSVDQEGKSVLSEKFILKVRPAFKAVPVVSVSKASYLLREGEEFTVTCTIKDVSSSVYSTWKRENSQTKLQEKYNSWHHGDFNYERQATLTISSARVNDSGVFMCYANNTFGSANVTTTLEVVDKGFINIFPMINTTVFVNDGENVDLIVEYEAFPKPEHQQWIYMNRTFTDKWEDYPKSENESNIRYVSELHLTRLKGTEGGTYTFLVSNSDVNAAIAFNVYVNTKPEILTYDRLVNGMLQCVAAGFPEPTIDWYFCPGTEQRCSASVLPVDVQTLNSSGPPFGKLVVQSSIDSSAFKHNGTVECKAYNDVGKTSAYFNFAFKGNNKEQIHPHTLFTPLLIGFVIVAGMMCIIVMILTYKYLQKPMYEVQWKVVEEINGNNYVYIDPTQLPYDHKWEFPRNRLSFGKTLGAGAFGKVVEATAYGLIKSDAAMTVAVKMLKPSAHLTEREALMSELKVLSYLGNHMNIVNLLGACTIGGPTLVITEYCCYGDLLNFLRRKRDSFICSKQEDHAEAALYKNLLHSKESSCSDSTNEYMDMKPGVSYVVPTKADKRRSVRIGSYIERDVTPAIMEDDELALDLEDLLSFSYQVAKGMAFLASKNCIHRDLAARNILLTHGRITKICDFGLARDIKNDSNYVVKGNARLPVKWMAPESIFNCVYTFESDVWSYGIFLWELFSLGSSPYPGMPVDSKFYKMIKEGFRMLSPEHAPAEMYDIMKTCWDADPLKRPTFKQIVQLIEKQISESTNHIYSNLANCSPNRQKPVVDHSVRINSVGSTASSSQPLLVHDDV

[6] = molecular target: Angiopoietin-1 receptor (Homo sapiens, UniProt Q02763); assay: Inhibition of Tie2
Chain of Angiopoietin-1 receptor (Q02763 whole entry): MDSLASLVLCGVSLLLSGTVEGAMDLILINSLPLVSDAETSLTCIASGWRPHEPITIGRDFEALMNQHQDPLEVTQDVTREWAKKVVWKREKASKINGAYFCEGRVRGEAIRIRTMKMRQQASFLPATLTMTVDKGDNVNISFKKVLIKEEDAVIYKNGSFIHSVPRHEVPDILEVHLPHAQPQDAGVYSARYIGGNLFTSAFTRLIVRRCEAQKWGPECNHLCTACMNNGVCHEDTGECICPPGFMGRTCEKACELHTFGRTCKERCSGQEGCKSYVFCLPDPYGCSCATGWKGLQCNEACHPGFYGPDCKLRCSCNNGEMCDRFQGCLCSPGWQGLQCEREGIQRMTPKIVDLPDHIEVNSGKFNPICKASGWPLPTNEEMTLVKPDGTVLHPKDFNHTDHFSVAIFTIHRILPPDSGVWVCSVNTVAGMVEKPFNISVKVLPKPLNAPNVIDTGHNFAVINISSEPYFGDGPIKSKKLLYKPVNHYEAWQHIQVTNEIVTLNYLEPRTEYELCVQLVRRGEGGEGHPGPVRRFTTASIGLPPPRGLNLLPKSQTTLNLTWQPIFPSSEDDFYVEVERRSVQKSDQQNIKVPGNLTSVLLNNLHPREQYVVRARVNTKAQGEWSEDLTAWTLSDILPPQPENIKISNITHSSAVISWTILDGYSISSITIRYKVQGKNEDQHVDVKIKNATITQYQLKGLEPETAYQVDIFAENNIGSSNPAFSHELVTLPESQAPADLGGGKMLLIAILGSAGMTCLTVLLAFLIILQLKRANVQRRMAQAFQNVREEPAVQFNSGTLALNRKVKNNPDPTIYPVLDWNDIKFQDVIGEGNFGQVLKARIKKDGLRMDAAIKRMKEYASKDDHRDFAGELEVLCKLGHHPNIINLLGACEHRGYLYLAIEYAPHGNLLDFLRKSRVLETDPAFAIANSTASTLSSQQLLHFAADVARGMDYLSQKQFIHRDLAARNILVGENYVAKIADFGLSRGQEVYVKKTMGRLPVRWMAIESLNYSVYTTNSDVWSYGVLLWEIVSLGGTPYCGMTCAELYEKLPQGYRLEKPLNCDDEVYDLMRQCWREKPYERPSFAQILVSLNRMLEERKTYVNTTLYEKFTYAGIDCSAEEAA

[7] = molecular target: T1, Ephrin type-B receptor 4 (Homo sapiens, UniProt P54760); assay: Inhibition of EphB4
T1 sequence (P54760 whole entry): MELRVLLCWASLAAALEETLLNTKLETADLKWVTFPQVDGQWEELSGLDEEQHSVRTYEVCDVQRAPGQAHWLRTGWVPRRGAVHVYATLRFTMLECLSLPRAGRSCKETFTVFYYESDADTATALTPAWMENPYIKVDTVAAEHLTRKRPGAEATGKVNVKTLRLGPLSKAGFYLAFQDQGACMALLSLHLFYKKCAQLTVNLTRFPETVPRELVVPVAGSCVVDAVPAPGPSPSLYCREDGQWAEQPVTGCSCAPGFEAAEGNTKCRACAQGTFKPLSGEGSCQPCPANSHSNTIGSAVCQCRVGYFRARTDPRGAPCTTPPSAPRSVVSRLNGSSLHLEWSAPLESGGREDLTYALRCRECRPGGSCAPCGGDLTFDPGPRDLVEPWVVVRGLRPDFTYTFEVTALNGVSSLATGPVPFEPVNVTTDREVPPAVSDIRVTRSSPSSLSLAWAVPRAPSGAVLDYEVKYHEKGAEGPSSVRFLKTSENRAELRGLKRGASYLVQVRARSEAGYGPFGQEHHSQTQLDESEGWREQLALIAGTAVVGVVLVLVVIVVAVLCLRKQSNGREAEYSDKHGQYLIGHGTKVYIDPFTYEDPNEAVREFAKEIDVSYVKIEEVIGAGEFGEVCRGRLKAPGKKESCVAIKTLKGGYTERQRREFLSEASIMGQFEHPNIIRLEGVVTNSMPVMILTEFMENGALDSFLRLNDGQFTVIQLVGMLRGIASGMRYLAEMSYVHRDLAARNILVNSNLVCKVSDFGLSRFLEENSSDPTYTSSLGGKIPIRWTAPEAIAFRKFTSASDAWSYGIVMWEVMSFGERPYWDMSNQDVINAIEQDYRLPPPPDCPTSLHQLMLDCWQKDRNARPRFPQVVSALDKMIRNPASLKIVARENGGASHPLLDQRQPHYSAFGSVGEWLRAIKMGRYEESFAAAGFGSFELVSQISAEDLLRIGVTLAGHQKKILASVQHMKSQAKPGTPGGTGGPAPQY

[8] = molecular target: Tyrosine-protein kinase JAK2 (Homo sapiens, UniProt O60674); assay: Inhibition of JAK2
[9] = molecular target: Fibroblast growth factor receptor 1 (Homo sapiens, UniProt P11362); assay: Inhibition of FGFR1
[10] = Inhibition of PKA
[11] = molecular target: Hepatocyte growth factor receptor (Homo sapiens, UniProt P08581); assay: Inhibition of cMet
Chain of Hepatocyte growth factor receptor (P08581 whole entry): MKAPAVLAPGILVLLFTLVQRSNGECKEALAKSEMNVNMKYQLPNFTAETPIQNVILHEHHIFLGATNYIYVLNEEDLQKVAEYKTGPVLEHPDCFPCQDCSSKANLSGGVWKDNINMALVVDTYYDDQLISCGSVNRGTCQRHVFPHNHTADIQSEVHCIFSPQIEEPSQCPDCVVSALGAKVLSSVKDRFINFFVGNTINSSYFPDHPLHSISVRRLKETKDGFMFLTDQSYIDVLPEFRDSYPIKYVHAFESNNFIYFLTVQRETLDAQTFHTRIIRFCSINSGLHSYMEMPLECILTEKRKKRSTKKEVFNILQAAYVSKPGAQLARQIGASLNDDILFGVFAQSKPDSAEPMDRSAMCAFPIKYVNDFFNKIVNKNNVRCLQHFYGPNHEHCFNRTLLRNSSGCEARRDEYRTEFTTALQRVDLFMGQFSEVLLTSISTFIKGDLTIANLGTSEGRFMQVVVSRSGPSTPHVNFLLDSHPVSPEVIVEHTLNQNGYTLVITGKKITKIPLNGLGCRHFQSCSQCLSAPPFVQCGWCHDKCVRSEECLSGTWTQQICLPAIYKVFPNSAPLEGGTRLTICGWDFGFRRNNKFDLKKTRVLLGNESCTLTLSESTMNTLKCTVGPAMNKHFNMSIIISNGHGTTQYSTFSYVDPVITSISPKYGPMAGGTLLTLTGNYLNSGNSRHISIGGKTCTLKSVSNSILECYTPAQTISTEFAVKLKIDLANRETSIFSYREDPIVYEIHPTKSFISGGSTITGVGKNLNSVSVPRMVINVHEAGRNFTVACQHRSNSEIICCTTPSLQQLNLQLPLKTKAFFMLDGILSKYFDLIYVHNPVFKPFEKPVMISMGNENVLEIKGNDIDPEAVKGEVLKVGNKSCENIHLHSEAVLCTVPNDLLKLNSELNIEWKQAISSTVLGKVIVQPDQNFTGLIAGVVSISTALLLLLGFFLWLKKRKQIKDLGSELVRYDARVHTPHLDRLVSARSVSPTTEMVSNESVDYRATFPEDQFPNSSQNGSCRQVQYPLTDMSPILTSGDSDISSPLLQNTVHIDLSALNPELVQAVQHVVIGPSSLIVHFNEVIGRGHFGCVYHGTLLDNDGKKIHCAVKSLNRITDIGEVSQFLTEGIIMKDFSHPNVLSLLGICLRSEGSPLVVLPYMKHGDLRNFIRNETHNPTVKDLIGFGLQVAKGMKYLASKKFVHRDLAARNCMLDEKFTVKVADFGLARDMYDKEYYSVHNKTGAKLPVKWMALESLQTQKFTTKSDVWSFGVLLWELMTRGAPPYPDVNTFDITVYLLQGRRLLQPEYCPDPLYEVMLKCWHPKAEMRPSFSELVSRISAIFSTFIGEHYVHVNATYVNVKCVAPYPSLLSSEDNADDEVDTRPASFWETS

[12] = molecular target: T2, Tyrosine-protein kinase receptor UFO (Homo sapiens, UniProt P30530); assay: Inhibition of Axl kinase
T2 sequence (P30530 whole entry): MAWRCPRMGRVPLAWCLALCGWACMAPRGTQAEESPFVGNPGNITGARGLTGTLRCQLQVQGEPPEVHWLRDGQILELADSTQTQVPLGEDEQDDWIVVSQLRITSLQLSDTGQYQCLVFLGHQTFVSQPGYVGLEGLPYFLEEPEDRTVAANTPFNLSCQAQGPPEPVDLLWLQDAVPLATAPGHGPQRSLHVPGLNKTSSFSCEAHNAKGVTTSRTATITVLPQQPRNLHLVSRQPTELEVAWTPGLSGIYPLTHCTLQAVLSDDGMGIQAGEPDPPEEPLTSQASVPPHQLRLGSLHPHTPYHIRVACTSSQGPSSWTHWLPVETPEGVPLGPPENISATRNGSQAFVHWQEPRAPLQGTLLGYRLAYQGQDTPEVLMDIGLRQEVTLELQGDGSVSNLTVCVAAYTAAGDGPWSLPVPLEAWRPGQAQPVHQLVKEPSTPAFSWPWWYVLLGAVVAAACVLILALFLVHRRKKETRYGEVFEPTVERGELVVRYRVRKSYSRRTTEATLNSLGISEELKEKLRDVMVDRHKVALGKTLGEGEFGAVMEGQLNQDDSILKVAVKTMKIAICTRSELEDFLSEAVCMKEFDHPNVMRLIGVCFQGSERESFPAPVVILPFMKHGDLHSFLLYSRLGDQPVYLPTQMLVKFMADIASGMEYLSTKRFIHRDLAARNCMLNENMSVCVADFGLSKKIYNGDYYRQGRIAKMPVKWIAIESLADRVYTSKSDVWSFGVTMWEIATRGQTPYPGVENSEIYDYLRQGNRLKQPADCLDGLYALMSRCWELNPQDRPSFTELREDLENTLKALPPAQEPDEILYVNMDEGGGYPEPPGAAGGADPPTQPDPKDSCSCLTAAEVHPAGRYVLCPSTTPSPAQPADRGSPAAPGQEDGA

[13] = molecular target: Serine/threonine-protein kinase B-raf (Homo sapiens, UniProt P15056, V600E); assay: Inhibition of bRaf V599E mutant
[14] = molecular target: RAC-alpha serine/threonine-protein kinase (Homo sapiens, UniProt P31749); assay: Inhibition of PKB
Chain of RAC-alpha serine/threonine-protein kinase (P31749 whole entry): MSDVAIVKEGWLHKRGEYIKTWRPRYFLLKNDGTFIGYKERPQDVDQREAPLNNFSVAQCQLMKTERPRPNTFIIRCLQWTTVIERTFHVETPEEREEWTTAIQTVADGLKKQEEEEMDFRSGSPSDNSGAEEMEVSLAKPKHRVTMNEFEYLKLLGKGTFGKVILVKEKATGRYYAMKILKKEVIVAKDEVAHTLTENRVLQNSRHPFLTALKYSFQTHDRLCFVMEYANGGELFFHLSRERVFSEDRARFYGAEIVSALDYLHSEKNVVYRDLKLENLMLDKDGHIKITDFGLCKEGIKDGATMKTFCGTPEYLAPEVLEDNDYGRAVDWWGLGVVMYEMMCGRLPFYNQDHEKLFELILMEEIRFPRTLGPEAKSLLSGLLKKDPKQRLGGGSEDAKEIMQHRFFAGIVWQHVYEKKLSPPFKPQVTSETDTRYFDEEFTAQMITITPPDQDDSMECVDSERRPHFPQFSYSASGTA

[15] = molecular target: Proto-oncogene tyrosine-protein kinase Src (Homo sapiens, UniProt P12931); assay: Inhibition of cSrc
[16] = molecular target: Cyclin-dependent kinase 2 (Homo sapiens, UniProt P24941); assay: Inhibition of CDK2
[17] = molecular target: T3, Receptor-type tyrosine-protein kinase FLT3 (Homo sapiens, UniProt P36888); assay: Inhibition of FLT3
T3 sequence (P36888 whole entry): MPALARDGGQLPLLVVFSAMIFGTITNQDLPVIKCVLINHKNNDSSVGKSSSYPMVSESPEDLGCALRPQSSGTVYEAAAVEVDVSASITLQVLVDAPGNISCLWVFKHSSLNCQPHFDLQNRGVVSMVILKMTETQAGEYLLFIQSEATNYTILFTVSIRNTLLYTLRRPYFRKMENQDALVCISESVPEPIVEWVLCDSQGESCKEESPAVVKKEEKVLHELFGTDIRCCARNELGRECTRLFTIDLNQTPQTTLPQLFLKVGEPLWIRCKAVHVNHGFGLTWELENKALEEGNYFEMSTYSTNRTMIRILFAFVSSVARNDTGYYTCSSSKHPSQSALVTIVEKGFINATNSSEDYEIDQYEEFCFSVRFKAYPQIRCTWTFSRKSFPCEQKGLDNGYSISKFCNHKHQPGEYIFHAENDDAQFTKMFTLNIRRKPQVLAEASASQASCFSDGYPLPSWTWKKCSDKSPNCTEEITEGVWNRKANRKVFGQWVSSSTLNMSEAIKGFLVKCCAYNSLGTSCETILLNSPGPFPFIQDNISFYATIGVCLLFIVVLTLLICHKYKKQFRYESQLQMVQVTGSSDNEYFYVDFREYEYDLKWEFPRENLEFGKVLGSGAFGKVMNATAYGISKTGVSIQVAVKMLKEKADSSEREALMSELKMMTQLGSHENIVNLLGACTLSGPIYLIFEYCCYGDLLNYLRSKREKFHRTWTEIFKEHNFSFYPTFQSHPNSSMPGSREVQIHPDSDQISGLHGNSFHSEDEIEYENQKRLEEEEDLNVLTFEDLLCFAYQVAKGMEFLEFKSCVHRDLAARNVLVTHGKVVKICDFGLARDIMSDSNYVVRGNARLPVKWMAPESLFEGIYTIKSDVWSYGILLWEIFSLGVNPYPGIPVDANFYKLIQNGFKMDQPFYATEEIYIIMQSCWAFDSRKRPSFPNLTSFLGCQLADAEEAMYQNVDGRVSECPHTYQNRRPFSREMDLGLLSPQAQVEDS

Question: What does the source list for `CCN(CC)CCOc1ccc(Nc2cc(NC(=O)Nc3c(Cl)cccc3Cl)ncn2)cc1`?
Answer: IC50 [1]: 0.35 µM; IC50 [2]: > 10 µM; IC50 [3]: 0.96 µM; IC50 [4]: 0.25 µM; IC50 [5]: 0.93 µM; IC50 [6]: 0.3 µM; IC50 [7]: 0.43 µM; IC50 [8]: > 10 µM; IC50 [9]: 0.57 µM; IC50 [10]: > 10 µM; IC50 [11]: > 10 µM; IC50 [12]: > 10 µM; IC50 [13]: 0.15 µM; IC50 [14]: > 10 µM; IC50 [15]: 0.066 µM; IC50 [16]: > 10 µM; IC50 [17]: > 10 µM
